Assay results from ChEMBL document CHEMBL4138123, “Design, synthesis and biological evaluation of novel pyrazolochalcones as potential modulators of PI3K/Akt/mTOR pathway and inducers of apoptosis in breast cancer cells” (Eur J Med Chem, 2017).

Assays:
Format in all cases: functional
SN12C [1] = assay: Cytotoxicity against human SN12C cells assessed as growth inhibition after 48 hrs by sulforhodamine B assay
HT-29 [2] = assay: Cytotoxicity against human HT-29 cells assessed as cell growth at 0.1 uM after 48 hrs by sulforhodamine B assay relative to control; settings: HT-29, 48 h, read-out: Activity
SK-OV-3 = assay: Cytotoxicity against human SKOV3 cells assessed as cell growth at 1 uM after 48 hrs by sulforhodamine B assay relative to control; settings: SK-OV-3, 48 h, read-out: Activity
SNB-19 = assay: Cytotoxicity against human SNB19 cells assessed as cell growth at 100 uM after 48 hrs by sulforhodamine B assay relative to control; settings: SNB-19, 48 h, read-out: Activity
T47D [3] = assay: Cytotoxicity against human T47D cells assessed as cell growth at 1 uM after 48 hrs by sulforhodamine B assay relative to control; settings: read-out: Activity
HCT-15 = assay: Cytotoxicity against human HCT15 cells assessed as cell growth at 100 uM after 48 hrs by sulforhodamine B assay relative to control; settings: HCT-15, 48 h, read-out: Activity
SR = assay: Cytotoxicity against human SR cells assessed as cell growth at 0.1 uM after 48 hrs by sulforhodamine B assay relative to control; settings: read-out: Activity
SW-620 = assay: Cytotoxicity against human SW620 cells assessed as cell growth at 0.01 uM after 48 hrs by sulforhodamine B assay relative to control; settings: SW-620, 48 h, read-out: Activity
NCI-H322M = assay: Cytotoxicity against human NCI-H322M cells assessed as cell growth at 10 uM after 48 hrs by sulforhodamine B assay relative to control; settings: read-out: Activity
T47D [4] = assay: Cytotoxicity against human T47D cells assessed as growth inhibition after 48 hrs by sulforhodamine B assay
HT-29 [5] = assay: Cytotoxicity against human HT-29 cells assessed as cell growth at 10 uM after 48 hrs by sulforhodamine B assay relative to control; settings: HT-29, 48 h, read-out: Activity
M14 [6] = assay: Cytotoxicity against human M14 cells assessed as cell growth at 100 uM after 48 hrs by sulforhodamine B assay relative to control; settings: M14, 48 h, read-out: Activity
OVCAR-5 [7] = assay: Cytotoxicity against human OVCAR5 cells assessed as cell growth at 10 uM after 48 hrs by sulforhodamine B assay relative to control; settings: OVCAR-5, 48 h, read-out: Activity
BT-549 = assay: Cytotoxicity against human BT549 cells assessed as growth inhibition after 48 hrs by sulforhodamine B assay; settings: BT-549, 48 h
HCT-116 = assay: Cytotoxicity against human HCT116 cells assessed as cell growth at 100 uM after 48 hrs by sulforhodamine B assay relative to control; settings: HCT-116, 48 h, read-out: Activity
786-0 [8] = assay: Cytotoxicity against human 786-0 cells assessed as cell growth at 100 uM after 48 hrs by sulforhodamine B assay relative to control; settings: 786-0, 48 h, read-out: Activity
786-0 [9] = assay: Cytotoxicity against human 786-0 cells assessed as cell growth at 0.01 uM after 48 hrs by sulforhodamine B assay relative to control; settings: 786-0, 48 h, read-out: Activity
M14 [10] = assay: Cytotoxicity against human M14 cells assessed as cell growth at 0.01 uM after 48 hrs by sulforhodamine B assay relative to control; settings: M14, 48 h, read-out: Activity
OVCAR-3 = assay: Cytotoxicity against human OVCAR3 cells assessed as growth inhibition after 48 hrs by sulforhodamine B assay; settings: OVCAR-3, 48 h
NCI-H226 = assay: Cytotoxicity against human NCI-H226 cells assessed as growth inhibition after 48 hrs by sulforhodamine B assay; settings: NCI-H226, 48 h
SN12C [11] = assay: Cytotoxicity against human SN12C cells assessed as cell growth at 0.01 uM after 48 hrs by sulforhodamine B assay relative to control; settings: read-out: Activity
HOP-62 = assay: Cytotoxicity against human HOP62 cells assessed as growth inhibition after 48 hrs by sulforhodamine B assay; settings: HOP-62, 48 h
M14 [12] = assay: Cytotoxicity against human M14 cells assessed as cell growth at 10 uM after 48 hrs by sulforhodamine B assay relative to control; settings: M14, 48 h, read-out: Activity
SF-539 [13] = assay: Cytotoxicity against human SF539 cells assessed as cell growth at 1 uM after 48 hrs by sulforhodamine B assay relative to control; settings: SF-539, 48 h, read-out: Activity
RXF 393 [14] = assay: Cytotoxicity against human RXF393 cells assessed as cell growth at 0.01 uM after 48 hrs by sulforhodamine B assay relative to control; settings: RXF 393, 48 h, read-out: Activity
A498 = assay: Cytotoxicity against human A498 cells assessed as cell growth at 0.01 uM after 48 hrs by sulforhodamine B assay relative to control; settings: A498, 48 h, read-out: Activity
MDA-MB-231 = assay: Cytotoxicity against human MDA-MB-231 cells assessed as cell growth at 100 uM after 48 hrs by sulforhodamine B assay relative to control; settings: MDA-MB-231, 48 h, read-out: Activity
DU-145 = assay: Cytotoxicity against human DU145 cells assessed as cell growth at 100 uM after 48 hrs by sulforhodamine B assay relative to control; settings: DU-145, 48 h, read-out: Activity
SF-539 [15] = assay: Cytotoxicity against human SF539 cells assessed as cell growth at 0.01 uM after 48 hrs by sulforhodamine B assay relative to control; settings: SF-539, 48 h, read-out: Activity
UO-31 = assay: Cytotoxicity against human UO31 cells assessed as cell growth at 0.01 uM after 48 hrs by sulforhodamine B assay relative to control; settings: UO-31, 48 h, read-out: Activity
T47D [16] = assay: Cytotoxicity against human T47D cells assessed as cell growth at 10 uM after 48 hrs by sulforhodamine B assay relative to control; settings: read-out: Activity
KM12 = assay: Cytotoxicity against human KM12 cells assessed as growth inhibition after 48 hrs by sulforhodamine B assay; settings: KM12, 48 h
RXF 393 [17] = assay: Cytotoxicity against human RXF393 cells assessed as cell growth at 100 uM after 48 hrs by sulforhodamine B assay relative to control; settings: RXF 393, 48 h, read-out: Activity
OVCAR-5 [18] = assay: Cytotoxicity against human OVCAR5 cells assessed as cell growth at 0.1 uM after 48 hrs by sulforhodamine B assay relative to control; settings: OVCAR-5, 48 h, read-out: Activity
IGROV-1 = assay: Cytotoxicity against human IGROV1 cells assessed as cell growth at 10 uM after 48 hrs by sulforhodamine B assay relative to control; settings: IGROV-1, 48 h, read-out: Activity
SK-MEL-5 = assay: Cytotoxicity against human SK-MEL-5 cells assessed as cell growth at 10 uM after 48 hrs by sulforhodamine B assay relative to control; settings: SK-MEL-5, 48 h, read-out: Activity
M14 [19] = assay: Cytotoxicity against human M14 cells assessed as cell growth at 1 uM after 48 hrs by sulforhodamine B assay relative to control; settings: M14, 48 h, read-out: Activity

Structure (SMILES): COc1cc(C(=O)/C=C/c2cc(-c3ccc4c(c3)OCO4)n[nH]2)cc(OC)c1OC
- GI50 (SN12C [1]): 2.26 µM
- LC50 (SN12C [1]): 23.4 µM
- TGI (SN12C [1]): 6.28 µM
- growth at 0.1 µM (HT-29 [2]): 97%
- growth at 1 µM (SK-OV-3): 107%
- growth at 100 µM (SNB-19): -97%
- growth at 1 µM (T47D [3]): 68%
- growth at 100 µM (HCT-15): -45%
- growth at 0.1 µM (SR): 94%
- growth at 0.01 µM (SW-620): 98%
- growth at 10 µM (NCI-H322M): -22%
- GI50 (T47D [4]): 1.51 µM
- LC50 (T47D [4]): 19.9 µM
- TGI (T47D [4]): 4.63 µM
- growth at 10 µM (HT-29 [5]): -22%
- growth at 100 µM (M14 [6]): -84%
- growth at 10 µM (OVCAR-5 [7]): -2%
- GI50 (BT-549): 2.02 µM
- LC50 (concentration killing 50% of cells) (BT-549): 20.1 µM
- TGI (BT-549): 5 µM
- growth at 100 µM (HCT-116): -47%
- growth at 100 µM (786-0 [8]): -83%
- growth at 0.01 µM (786-0 [9]): 99%
- growth at 0.01 µM (M14 [10]): 98%
- GI50 (OVCAR-3): 1.71 µM
- LC50 (OVCAR-3): 7.17 µM
- TGI (OVCAR-3): 3.5 µM
- GI50 (NCI-H226): 1.52 µM
- LC50 (concentration killing 50% of cells) (NCI-H226): > 100 µM
- TGI (NCI-H226): 4.25 µM
- growth at 0.01 µM (SN12C [11]): 98%
- GI50 (HOP-62): 2.33 µM
- LC50 (HOP-62): 24.5 µM
- TGI (HOP-62): 6.24 µM
- growth at 10 µM (M14 [12]): -4%
- growth at 1 µM (SF-539 [13]): 68%
- growth at 0.01 µM (RXF 393 [14]): 93%
- growth at 0.01 µM (A498): 89%
- growth at 100 µM (MDA-MB-231): -97%
- growth at 100 µM (DU-145): -97%
- growth at 0.01 µM (SF-539 [15]): 101%
- growth at 0.01 µM (UO-31): 85%
- growth at 10 µM (T47D [16]): -34%
- GI50 (KM12): 1.86 µM
- LC50 (KM12): 7.97 µM
- TGI (KM12): 3.85 µM
- growth at 100 µM (RXF 393 [17]): -92%
- growth at 0.1 µM (OVCAR-5 [18]): 99%
- growth at 10 µM (IGROV-1): -26%
- growth at 10 µM (SK-MEL-5): 14%
- growth at 1 µM (M14 [19]): 96%

Structure (SMILES): COc1ccc(-c2cc(/C=C/C(=O)c3cc(OC)c(OC)c(OC)c3)[nH]n2)cc1OC
- GI50 (SN12C [1]): 1.77 µM
- LC50 (SN12C [1]): 8.26 µM
- TGI (SN12C [1]): 3.83 µM
- growth at 0.1 µM (HT-29 [2]): 99%
- growth at 1 µM (SK-OV-3): 87%
- growth at 100 µM (SNB-19): -77%
- growth at 1 µM (T47D [3]): 51%
- growth at 100 µM (HCT-15): -49%
- growth at 0.1 µM (SR): 73%
- growth at 0.01 µM (SW-620): 98%
- growth at 10 µM (NCI-H322M): -23%
- GI50 (T47D [4]): 1.01 µM
- LC50 (T47D [4]): > 100 µM
- TGI (T47D [4]): 3.76 µM
- growth at 10 µM (HT-29 [5]): -87%
- growth at 100 µM (M14 [6]): -74%
- growth at 10 µM (OVCAR-5 [7]): -47%
- GI50 (BT-549): 1.36 µM
- LC50 (concentration killing 50% of cells) (BT-549): 6.32 µM
- TGI (BT-549): 2.93 µM
- growth at 100 µM (HCT-116): -61%
- growth at 100 µM (786-0 [8]): -90%
- growth at 0.01 µM (786-0 [9]): 100%
- growth at 0.01 µM (M14 [10]): 96%
- GI50 (OVCAR-3): 1.59 µM
- LC50 (OVCAR-3): 6.23 µM
- TGI (OVCAR-3): 3.15 µM
- GI50 (NCI-H226): 1.93 µM
- LC50 (concentration killing 50% of cells) (NCI-H226): > 100 µM
- TGI (NCI-H226): 7.91 µM
- growth at 0.01 µM (SN12C [11]): 98%
- GI50 (HOP-62): 1.45 µM
- LC50 (HOP-62): 8.85 µM
- TGI (HOP-62): 3.58 µM
- growth at 10 µM (M14 [12]): -70%
- growth at 1 µM (SF-539 [13]): 17%
- growth at 0.01 µM (RXF 393 [14]): 103%
- growth at 0.01 µM (A498): 99%
- growth at 100 µM (MDA-MB-231): -71%
- growth at 100 µM (DU-145): -88%
- growth at 0.01 µM (SF-539 [15]): 95%
- growth at 0.01 µM (UO-31): 88%
- growth at 10 µM (T47D [16]): -37%
- GI50 (KM12): 0.78 µM
- LC50 (KM12): 5.68 µM
- TGI (KM12): 2.27 µM
- growth at 100 µM (RXF 393 [17]): -83%
- growth at 0.1 µM (OVCAR-5 [18]): 92%
- growth at 10 µM (IGROV-1): -7%
- growth at 10 µM (SK-MEL-5): -99%
- growth at 1 µM (M14 [19]): 91%
